We go through 1 compound from US20140148477A1, “ANIMAL ECTOPARASITE-CONTROLLING AGENT AND METHOD FOR PREVENTING OR TREATING INFECTION IN ANIMALS CAUSED BY PARASITES BY USING THE CONTROLLING AGENT” (OTSUKA AGRITECHNO CO., LTD., priority 2011, published 2014).

The series in a line: Dissolution in acetone when preparing the test solution. The series is classed as physicochemical. The conditions noted are these: acetone added so that the concentration was 0.5 mg/ml. On the procedure: Acetone was added to each of Test Compounds 1 to 17 so that the concentration was 0.5 mg/ml, thereby preparing solutions.

As to `COC(Cn1nc(-c2cc(F)cc(F)c2)cc1O[C@@H]1CCN(c2ccc(C(F)(F)F)cn2)C[C@@H]1C)OC` [Test Compound 15], the solubility in acetone entry is reported as “not dissolved in acetone”.
